Source: US6117840A, “CS-1 peptidomimetics, compositions and methods of using the same” (Cytel Corporation, priority 1997, dated 2000)
Like-named read-outs stand apart in the source and are kept apart here. Square brackets hold non-standard residues; d marks the D form. Peptide text beside a SMILES is read from it. * marks the point of attachment. PhAc = O=C(Cc1ccccc1)*

Legend:
[1] = molecular target: T1, VLA-4 (Homo sapiens, UniProt P05556+P13612); type: cell-based; conditions: for RELATIVE POTENCY (inhibition of VLA-4 binding CS-1): relative to standard peptide SEQ ID NO:3 (=1), normalized IC50, about one-tenth or less of SEQ ID NO:3 assigned zero
T1 construct: host or cells: Jurkat (human T lymphoblastic line)
T1 sequence (P13612 34-1032): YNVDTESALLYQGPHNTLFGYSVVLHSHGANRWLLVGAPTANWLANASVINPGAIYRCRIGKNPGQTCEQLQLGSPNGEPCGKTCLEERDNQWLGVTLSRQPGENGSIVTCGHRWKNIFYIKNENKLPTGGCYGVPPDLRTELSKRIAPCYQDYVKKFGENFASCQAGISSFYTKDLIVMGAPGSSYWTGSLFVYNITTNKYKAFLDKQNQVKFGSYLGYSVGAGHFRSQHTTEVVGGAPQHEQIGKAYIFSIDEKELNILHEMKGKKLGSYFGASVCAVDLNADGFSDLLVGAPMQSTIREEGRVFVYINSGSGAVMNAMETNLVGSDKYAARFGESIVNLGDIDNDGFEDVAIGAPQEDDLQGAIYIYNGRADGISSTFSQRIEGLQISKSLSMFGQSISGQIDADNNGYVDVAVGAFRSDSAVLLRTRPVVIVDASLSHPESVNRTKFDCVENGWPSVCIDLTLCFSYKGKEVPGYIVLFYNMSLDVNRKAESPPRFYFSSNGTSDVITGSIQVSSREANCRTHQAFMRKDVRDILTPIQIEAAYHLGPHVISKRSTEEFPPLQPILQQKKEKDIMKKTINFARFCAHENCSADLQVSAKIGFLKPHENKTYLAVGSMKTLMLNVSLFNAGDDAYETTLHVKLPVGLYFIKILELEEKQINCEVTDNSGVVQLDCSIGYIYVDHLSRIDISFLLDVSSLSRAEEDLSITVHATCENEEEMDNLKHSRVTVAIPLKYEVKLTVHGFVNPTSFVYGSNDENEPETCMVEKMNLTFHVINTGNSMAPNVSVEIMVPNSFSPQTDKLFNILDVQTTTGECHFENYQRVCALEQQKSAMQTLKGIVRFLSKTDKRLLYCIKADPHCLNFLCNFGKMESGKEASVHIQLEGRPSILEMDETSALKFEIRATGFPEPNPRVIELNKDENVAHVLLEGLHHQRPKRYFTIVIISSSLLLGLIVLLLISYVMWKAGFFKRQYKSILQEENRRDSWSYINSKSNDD
T1 sequence (P05556 21-798): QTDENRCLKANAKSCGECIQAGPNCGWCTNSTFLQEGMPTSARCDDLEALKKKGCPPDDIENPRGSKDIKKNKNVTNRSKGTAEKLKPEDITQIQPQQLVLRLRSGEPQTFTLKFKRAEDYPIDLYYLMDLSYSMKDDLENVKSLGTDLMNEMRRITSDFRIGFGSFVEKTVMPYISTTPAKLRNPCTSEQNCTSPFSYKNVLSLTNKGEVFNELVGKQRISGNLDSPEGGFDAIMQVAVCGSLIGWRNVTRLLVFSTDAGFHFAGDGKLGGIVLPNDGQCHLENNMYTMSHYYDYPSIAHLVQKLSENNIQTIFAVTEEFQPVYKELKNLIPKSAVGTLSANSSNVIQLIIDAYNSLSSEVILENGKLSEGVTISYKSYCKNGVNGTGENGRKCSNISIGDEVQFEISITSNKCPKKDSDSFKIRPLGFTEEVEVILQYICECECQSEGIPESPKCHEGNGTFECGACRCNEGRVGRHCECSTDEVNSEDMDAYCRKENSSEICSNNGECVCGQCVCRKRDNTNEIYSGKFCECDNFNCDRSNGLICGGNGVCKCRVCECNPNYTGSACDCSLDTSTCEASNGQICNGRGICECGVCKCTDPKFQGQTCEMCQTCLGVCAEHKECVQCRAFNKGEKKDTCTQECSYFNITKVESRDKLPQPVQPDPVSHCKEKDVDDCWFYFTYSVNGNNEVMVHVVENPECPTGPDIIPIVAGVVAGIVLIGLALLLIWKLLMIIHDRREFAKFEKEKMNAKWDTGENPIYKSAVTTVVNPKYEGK
Procedure, shortened: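 ⁵¹Cr-labelled Jurkat cells were preincubated with peptide for 30 min at ~22 °C, then allowed to adhere 30 min at 37 °C to wells coated with CS1 peptide or CS1-OVA. After washing, bound cells were SDS-lysed and counted. IC50 is the concentration halving cell binding.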

[2] = tested on: New Zealand white rabbits; experiment: Rabbit cardiac allograft model; type: in vivo; conditions: for Expression on Coronary Arteries: ICAM-1 / Expression on Coronary Arteries: Macrophages / Expression on Coronary Arteries: T cells / Expression on Coronary Arteries: Total Fibronectin / Expression on Coronary Arteries: VCAM-1 / Vessel Intimal Thickening: Percent of Vessels / Vessel Intimal Thickening: Severity (Percent of Vessel area) / Expression on Coronary Arteries: MHC Class II: 1 mg/kg s.c., donor heart; for Expression on Coronary Arteries: MHC Class II: 7 to 8 days; for Expression on Coronary Arteries: ICAM-1: key: -: negative; ±: minimal; +: little; ++: moderately abundant; +++: very abundant; for Expression on Coronary Arteries: Macrophages: key: -: negative; ±: minimal; +: little; ++: moderately abundant; +++: very abundant; for Expression on Coronary Arteries: T cells: key: -: negative; ±: minimal; +: little; ++: moderately abundant; +++: very abundant; for Expression on Coronary Arteries: Total Fibronectin: key: -: negative; ±: minimal; +: little; ++: moderately abundant; +++: very abundant
Text: New Zealand white female rabbits (Charles River Lab., Saint Laurent, Quebec), between 3.5 and 4 kg underwent heterotopic cardiac transplant following an experimental protocol previously described [Alonso et al., Am. J. Pathol., 87:415-442 (1977); Clausell et al., Circulation, 89:2768-2779 (1994)] and approved by the Animal Care Committee of The Hospital for Sick Children, Toronto. The animals were […] to favor an HLA-mismatch, the host rabbits were Pasteurella-free and the donors, outbred animals. Both host and donor rabbits were fed Purina 5321-0.5 percent cholesterol diet (Research Diets Inc., New Brunswick, N.J.), a strategy that has proven useful in accelerating the process of allograft arteriopathy [Alonso et al., Am. J. Pathol., 87:415-442 (1977)]. The diet was commenced four days prior to the transplant and continued in the recipient of the transplant until the completion of the experimental period.
The technique of heterotopic cardiac transplantation has been previously described [Clausell et al., Circulation, 89:2768-2779 (1994)]. Briefly, a vertical incision was performed in the anterior aspect of the neck of the recipient rabbit and the left common carotid artery and the ipsilateral external jugular vein were isolated. The cardiac allograft was placed in the neck by anastomosing the aorta end-to-side to the recipient's carotid artery and the pulmonary end-to-side to the recipient's external jugular vein, following a total period of ischemia for the donor hearts of approximately 30 minutes. Postoperative care was in compliance with the Principles of Laboratory Animal Care formulated by the Canadian National Society for Medical Research.
Beginning the day of the transplant, the animals were randomized and treated with either scrambled peptide (control group) at 1 mg/kg s.c. or the inhibitor peptide at 1 mg/kg s.c. The doses of the peptides were empirically extrapolated to the in vivo model based on preliminary in vitro studies, of Table 1. No other immunosuppression therapy was administered. The grafts were monitored daily by palpation and maintained for 7 to 8 days, a previously described endpoint that was associated with myocardial rejection (impaired cardiac contractility) and development of the allograft arteriopathy in this model [Clausell et al., Circulation, 89:2768-2779 (1994)]. A total of fourteen animals were studied in the control (n=7) and treated (n=7) groups.
The animals were sacrificed using a lethal dose of euthanol (480 mg i.v.) (MTC Pharmaceutical, Cambridge, ON), host and donor hearts were removed, and the coronary arteries were perfused with saline through the aorta, followed by light fixation by perfusion with 2 percent paraformaldehyde (Sigma, St, Louis, Mo.). […] Different sections of the hearts were either saved in 10 percent formalin (BDH Inc., Toronto, ON) for light microscopy studies or immediately frozen in O.T.C. Compound Tissue Tek (Miles Inc., Elkart, Ind.) for specific immunohistochemistry studies.
Three different paraffin-embedded tissue sections from host and donor hearts from both control and treated rabbits were stained by the Movat pentachrome method for light microscopy. Morphometric analysis was performed using a Zeiss microscope attached to a computer-generated video analysis system (Perceptics Inc., NuVision software), as described in Clausell et al., Circulation, 89:2768-2779 (1994). The number of vessels with intimal lesions were counted in all three heart sections from each animal studied and are expressed as a percentage of the total vessel number.
In the host hearts, 999 vessels in the control group and 1054 vessels in the treated group were analyzed. In the donor hearts, 827 vessels in the control group and 617 vessels in the treated group were analyzed. […]

SMILES	binding inhibition (in words) ([1]; compared to standard 10-mer / B12)	RELATIVE POTENCY (inhibition of VLA-4 binding CS-1) [1]	RELATIVE POTENCY (inhibition of VLA-4 binding CS-1) ([1]; listed as N--phenylacetyl--Asp--Leu--Phe--D--Pro--NH2)	Expression on Coronary Arteries: ICAM-1 [2]	Expression on Coronary Arteries: Macrophages [2]	Expression on Coronary Arteries: T cells [2]	Expression on Coronary Arteries: Total Fibronectin [2]	Expression on Coronary Arteries: VCAM-1 [2]	Vessel Intimal Thickening: Percent of Vessels [2]	Vessel Intimal Thickening: Severity (Percent of Vessel area) [2]	Expression on Coronary Arteries: MHC Class II [2]	Baseline (rabbit own host heart) of incidence [2]	Baseline (rabbit own host heart) of severity [2]	VLA-4 binding inhibition, times better than the standard 10-mer peptide of SEQ ID NO:3 [1]
CC(C)C[C@H](NC(=O)[C@H](CC(=O)O)NC(=O)Cc1ccccc1)C(=O)N[C@@H](Cc1ccccc1)C(=O)N1CCC[C@@H]1C(N)=O [X L D F p phenylacetyl amide scrambled, N--phenylacetyl--Asp--Leu--Phe--D--Pro--NH2, reference compound] (PhAc-DLF[dP]-NH2)	no inhibition of VLA-4	0	< 1	+	+	++	++	+	88%	36%	++	1%	12%	
CC(C)C[C@H](NC(=O)Cc1ccccc1)C(=O)N[C@@H](CC(=O)O)C(=O)N[C@@H](Cc1ccccc1)C(=O)N1CCC[C@@H]1C(N)=O [X L D F p phenylacetyl amide, N--phenylacetyl--Leu--Asp--Phe--D--Pro--NH2] (PhAc-LDF[dP]-NH2)		313		±	±	±	±	±	35%	16%	±	12%	12%	about 312 times
